Assay results reported in patent US20040127439A1, “Introduction of the wld gene for prevention of axonal degeneration in neurological diseases” (priority 2004, published 2004).
Read-outs that look alike come from different tables or passages of the source.

Key:
axotomized neurites = assay: Wallerian degeneration of axotomized DRG neurites in culture; format: cell-based, rat; conditions: added at the time of axotomy; EGTA 2 mM or AK295 50 μM; 72 hours after axotomy
Description: Five-day old cultures with extended neurites are used. Neurites are cut by excising and removing the DRG with a scalpel blade. Care should be taken to remove substantially all neurons within the DRG. At least 1 ganglion/dish was left unaxotomized to serve as a control for that group of ganglia. For experiments involving therapeutic interventions, the media is changed just prior to axotomy to media containing either EGTA (2 mM) or AK295 (50 μM). Cultures are observed daily for 72 hours after axotomy, at which time they are fixed and immunostained.
Stained cultures are scored blindly for degree of axonal degeneration. […] Any fibers with interruptions along their length are scored as degenerated. The number of surviving fibers in each DRG are counted under 200× magnification, and the DRG is given a survival score of 0-3: 0 =no fibers remaining, 1=1-4 fibers remaining, 2=5-9 fibers remaining, 3=10 or more fibers remaining.

DRG neurites [1] = conditions: for Area (DRG neuritic halo) / Length (longest neurite): Vin 0.01 μM, EGTA 2 mM
Description: On the day of DRG culture, the dishes are washed twice with PBS buffer (pH 7.4), filled with 550 μl medium and pre-incubated at 37 C for at least 2 hours. Fifteen-day old embryos (E15) are removed from pregnant Sprague-Dawley rats (Charles River), and spinal cords with cervical and thoracic DRGs attached are dissected into Leibovitz L-15 medium (GIBCO). Ganglia are separated from the spinal cord, stripped of their connective tissue sheaths and roots, and are then pooled and washed twice with PBS buffer (pH 7.4). DRGs are plated (4 per dish) in culture media and incubated at 37° C. in 5% carbon dioxide for 4 hours to allow DRGs to attach to the substrate. Medium is then added to bring the total volume to 1 ml. […] Calcium-free medium is prepared in the same manner, replacing MEM with S-MEM (GIBCO).
At the end of the treatment period (see below) DRGs are fixed for 30 minutes with 4% paraformaldehyde. Cultures are then rinsed with 0.1M TBS buffer, and treated sequentially with 3% H2O2, TBS-Triton, and 4% normal goat serum (NGS), each for 30 minutes at room temperature. DRGs are incubated at 4 C overnight in monoclonal antibody to MAP5 (1:500, Sigma). After washing in TBS-Triton, DRGs are incubated for 60 minutes in biotinylated secondary antibody, rinsed with TBS and reacted with avidin-biotin complex solution (ABC; Vector Labs) for one hour. Color is generated by incubation for 10 minutes in diaminobenzidine (DAB) solution, enhanced by addition of 0.025% cobalt chloride and 0.02% nickel ammonium sulfate. Stained tissue is rinsed, air dried and cover-slipped for microscopy with Crystal/Mount (Biomeda).
This method of allowing neuritic extension to proceed before addition of a neurotoxin tests the effect of the toxin on established neurites as opposed to the effect on primary neuritic outgrowth.
After day 5 of culture, the media is changed to that containing the experimental treatment. This date is defined as treatment day 0. Cultures are monitored and imaged daily using video microscopy. […] AK 295 (Z-leu-Abu-(CH2)3-4-morpholinyl, gift of Dr. James Powers, Georgia Institute of Technology), is dissolved in 100% DMSO and is then diluted to its final concentration with culture medium. The final concentration of DMSO is 0.05%. Phenylmethylsulfonyl fluoride (PMSF) is manufactured by and commercially available from Sigma.
After 6 days of treatment (11 days in culture) immunostained DRGs are quantitated for degree of axonal degeneration. Images of the DRGs and neurites are captured onto disk using a computerized video imaging system, and are analyzed using NIH Image version 1.61. DRG areas are calculated by tracing the outside circumference of the remaining culture halo. The length of the longest neurite of each DRG is measured from the center of the DRG to the distal end of the neurite, so that cultures without remaining neurites still have positive values. These quantitative data are subjected to ANOVA, with post-test correction for multiple comparisons.

DRG neurites [2] = assay: Effect of treatment modalities on DRG area and neuritic length in control cultures (no vincristine); format: cell-based, rat; conditions: for Area / Length: added to 5-day old cultures, after 6 days of treatment, no vincristine; for effects on neurite growth or survival in control cultures (in words): addition to control cultures
Text: This date is defined as treatment day 0. Cultures are monitored and imaged daily using video microscopy. […] The final concentration of DMSO is 0.05%.

[3] = Day 3 of treatment, AK295 50 μM
[4] = Day 4 of treatment, AK295 50 μM
[5] = Day 6 of treatment, AK295 50 μM, PMSF 50 μM

| SMILES | protection against Wallerian degeneration (in words) (axotomized neurites) | prevention of vincristine-induced axonal degeneration (in words) (DRG neurites [1]; AK295 1 μM (not shown)) | prevention of vincristine-induced axonal degeneration (in words) (DRG neurites [1]; AK295 10 μM (not shown)) | prevention of vincristine-induced axonal degeneration (in words) (DRG neurites [1]; AK295 50 μM) | Area (DRG neuritic halo) (DRG neurites [1]; [3]) | Length (longest neurite) (DRG neurites [1]; [3]) [mm] | Area (DRG neuritic halo) (DRG neurites [1]; [4]) | Length (longest neurite) (DRG neurites [1]; [4]) [mm] | Area (DRG neuritic halo) (DRG neurites [1]; [5]) | Length (longest neurite) (DRG neurites [1]; [5]) [mm] | Area (DRG neurites [2]) [mm^2] | Length (DRG neurites [2]) [mm] | effects on neurite growth or survival in control cultures (in words) (DRG neurites [2]) | protection against vincristine-induced axonal degeneration (in words) (DRG neurites [1]; PMSF 50 μM, day 6) | protection against vincristine-induced axonal degeneration (in words) (DRG neurites [1]; EGTA 2 mM in standard media) | protection against vincristine-induced axonal degeneration (in words) (DRG neurites [1]; EGTA ≦1 mM in standard media) |
| --- | --- | --- | --- | --- | --- | --- | --- | --- | --- | --- | --- | --- | --- | --- | --- | --- |
| CCC(NC(=O)[C@H](CC(C)C)NC(=O)OCc1ccccc1)C(=O)C(=O)NCCCN1CCOCC1 (stereo partly shown) [AK295, Z-leu-Abu-(CH2)3-4-morpholinyl] | as protective as EGTA | ineffective | effective in preventing axonal degeneration | effective in preventing axonal degeneration | 16.61 ± 1.18 (18) mm^2 | 2.65 ± 0.11 | 14.77 ± 2.19 (14) mm^2 | 2.45 ± 0.25 | 10.34 ± 2.14 (12) mm^2 | 2.05 ± 0.25 | 49.18 ± 2.69 | 4.80 ± 0.16 | no effects on neurite growth or survival | – | – | – |
| O=S(=O)(F)Cc1ccccc1 [PMSF, Phenylmethylsulfonyl fluoride] | – | – | – | – | – | – | – | – | 0.73 ± 0.16 (43) mm^2 | 0.55 ± 0.06 | – | – | – | no protective effects | – | – |
| O=C(O)CN(CCOCCOCCN(CC(=O)O)CC(=O)O)CC(=O)O [EGTA] | significant protection | – | – | – | 15.05 ± 1.78 (12) mm^2 | 2.62 ± 0.17 | 12.97 ± 0.94 mm^2 | 2.44 ± 0.13 | 13.36 ± 1.04 (14) mm^2 | 2.43 ± 0.07 | 44.40 ± 2.74 | 4.74 ± 0.18 | no effects on neurite growth or survival | – | as effective as calcium-free media | ineffective |
